Assay results: patent publication EP3064205A1, “Therapeutic use of isomeric forms of 2-(4-chlorophenyl)quinolin-4-yl)(piperidin-2-yl)methanol” (Glionova AB, priority 2015, dated 2016)
“Also recorded” adds a separate entry of the source. Read-outs that look alike come from different tables or passages of the source.

Columns and labels:
MEXF 672 = experiment: 3D clonogenic assay (PDX); assay type: cell-based, human; settings: MEXF 672, Melanoma; for IC50: Homo sapiens
Method: (§1) The anti-tumor efficacy of S1 in the patient-derived tumor xenograft (PDX) tumor panel was assessed, where the efficacy of S1 in PDX tumor panel in the 96-well format, in 10 concentrations in duplicate was performed. Colony formation of tumor cell suspensions in a soft-agar matrix was observed and quantified. The output is IC50 values and dose response-relationships based on number of colonies in control and treatment wells, as identified by an automated image analysis algorithm. Stock solution of S1 was prepared in 100% DMSO at 10 mM concentration (stored at -20°C) and reused for each experiment. Compound final test concentrations: Dilution series ½ i.e.: 50µM, 15, 5, 1.5, 0.5, 0.15, 0.05, 0.015, 0.005 and 0.0015.
(§2) Tumor xenografts (also referred to as patient-derived tumor xenografts) were passaged as subcutaneous xenografts in NMRI nu/nu mice. Tumor xenograft were removed from mice under sterile conditions, mechanically disaggregated and subsequently incubated with an enzyme cocktail consisting of collagenase type IV (41 U/mL), DNase I (125 U/mL), hyaluronidase type III (100 U/mL) and dispase II (1.0 U/mL) in RPMI 1640 medium at 37°C for 60 - 120 minutes. Cells were passed through sieves of 100 µm and 40 µm mesh size and washed with RPMI 1640 medium. The percentage of viable cells was determined in a Neubauer-hemocytometer using trypan blue exclusion. Aliquots of the cells were frozen down, and stored in liquid nitrogen.
(§3) The clonogenic assay test was carried out in 96 well plate format. For each test a frozen aliquot of tumor cells prepared from tumor xenografts was thawed and assay plates were prepared as follows: each test well contained 3 layers of equal volume, 2 layers of semi-solid medium (bottom and top layer), and one layer of medium supernatant, with or without test compound. The bottom layer consisted of 0.05 mL/well Iscove's Modified Dulbecco's Medium (Invitrogen), supplemented with 20% (v/v) fetal calf serum (Sigma), 0.01% (w/v) gentamicin (Invitrogen) and 0.75% (w/v) agar (BD Biosciences). Tumor cells were added to 0.05 mL of the same culture medium supplemented with 0.4% (w/v) agar and plated onto the bottom layer. After 24 h, test compounds were added after serial dilution in DMSO and transfer in cell culture medium, and left on the cells for the duration of the experiment (continuous exposure, 0.05 mL drug overlay). Every dish included six untreated control wells and drug-treated groups in duplicate at 10 concentrations. Cultures were incubated at 37 °C and 7.5% CO2 in a humidified atmosphere for 8 to 13 days and monitored closely for colony growth using an inverted microscope. Within this period, ex vivo tumor growth lead to the formation of colonies with a diameter of >50 µm. At the time of maximum colony formation, counts were performed with an automatic image analysis system. 24 h prior to evaluation, vital colonies were stained with a sterile aqueous solution of 2-(4-iodophenyl)-3-(4-nitrophenyl)-5-phenyltetrazolium chloride (1 mg/mL, 100 µL/well). Sigmoidal concentration-response curves were fitted to the data points obtained for each tumor model using 4 parameter non-linear curve fit (Oncotest Warehouse Software). IC50 values are reported as relative IC50 values, being the concentration of test compound that give a response (inhibition of colony formation/viability) half way between the top and bottom plateau of the sigmoidal concentration-response curve (inflection point of the curve), or as absolute IC50 values, being the concentration of test compound at the intersection of the concentration-response curves with T/C = 50%. For calculation of mean IC50 values the geometric mean was used. Results are presented as mean graph plots or heat maps (individual IC50 values relative to the geometric mean IC50 value) over all cell lines as tested.

PAXF 1872 = experiment: 3D clonogenic assay (PDX); assay type: cell-based, human; settings: PAXF 1872, Pancreas; for IC50: Homo sapiens
Method: as §1, §2, §3

SXFS 627 = experiment: 3D clonogenic assay (PDX); assay type: cell-based, human; settings: SXFS 627, Sarcoma Soft Tissue; for IC50: Homo sapiens
Method: as §1, §2, §3

CXF 1783 = experiment: 3D clonogenic assay (PDX); assay type: cell-based, human; settings: CXF 1783, Colorectal; for IC50: Homo sapiens
Method: as §1, §2, §3

RXF 1781 = experiment: 3D clonogenic assay (PDX); assay type: cell-based, human; settings: RXF 1781, Renal; for IC50: Homo sapiens
Method: as §1, §2, §3

LXFL 430 = experiment: 3D clonogenic assay (PDX); assay type: cell-based, human; settings: LXFL 430, Lung Large Cell; for IC50: Homo sapiens
Method: as §1, §2, §3

RXF 1183 = experiment: 3D clonogenic assay (PDX); assay type: cell-based; settings: Homo sapiens, RXF 1183, Renal
Method: as §1, §2
(§4) The clonogenic assay test was carried out in 96 well plate format. For each test a frozen aliquot of tumor cells prepared from tumor xenografts was thawed and assay plates were prepared as follows: each test well contained 3 layers of equal volume, 2 layers of semi-solid medium (bottom and top layer), and one layer of medium supernatant, with or without test compound. The bottom layer consisted of 0.05 mL/well Iscove's Modified Dulbecco's Medium (Invitrogen), supplemented with 20% (v/v) fetal calf serum (Sigma), 0.01% (w/v) gentamicin (Invitrogen) and 0.75% (w/v) agar (BD Biosciences). Tumor cells were added to 0.05 mL of the same culture medium supplemented with 0.4% (w/v) agar and plated onto the bottom layer. After 24 h, test compounds were added after serial dilution in DMSO and transfer in cell culture medium, and left on the cells for the duration of the experiment (continuous exposure, 0.05 mL drug overlay). Every dish included six untreated control wells and drug-treated groups in duplicate at 10 concentrations. Cultures were incubated at 37 °C and 7.5% CO2 in a humidified atmosphere for 8 to 13 days and monitored closely for colony growth using an inverted microscope. Within this period, ex vivo tumor growth lead to the formation of colonies with a diameter of >50 µm. […]

MAXF 574 = experiment: 3D clonogenic assay (PDX); assay type: cell-based; settings: Homo sapiens, MAXF 574, Breast
Method: as §1, §2, §4

[1] = system: glioblastoma cell line U3013; experiment: ATP viability assay (CellTiter-Glo); assay type: cell-based, human
Method: The human melanoma cell line SK-MEL-28 is a well established reference cell line in melanoma research (Goodfellow M, et al. J. Natl. Cancer Inst. 59: 221-226, 1977). Cells were cultured in MEM supplemented with 10% FCS. Glioblastoma cell line (U3013) was generated directly from patient-derived tumors (Kitambi et al. Cell. 2014: 157(2):313-28) and grown in serum-free media supplemented with N2, B27, EGF, and FGF-2 (20 ng/ml) using previously described methodology (Pollard et al., 2009).
Culture plates were pre-coated with laminin (Sigma) for 3 hr at 10 ug/ml prior to use and confluent cells were split 1:3 to 1:5 using TrypLE Express (Invitrogen).
Viability assay was conducted in 96 well microtiter plates seeded with 3000 cells. Cell viability was measured using CellTiter-Glo assay (Promega), according to the manufacturer's instructions. Luminescence was measured using Victor3 FA (Perkin Elmer) microtiter plate reader. Total luminescence was normalized relative to negative control and curve fitting performed using GraphPad Prism (v6.02) software. IC50 was determined using Cell Viability assay, and data was illustrated using GraphPad Prism (version 6.02)

**Q.** `O[C@H](c1cc(-c2ccc(Cl)cc2)nc2ccccc12)[C@@H]1CCCCN1` [S1, (R)-(2-(4-chlorophenyl)quinolin-4-yl)((S)-piperidin-2-yl)methanol] was tested. Which IC50 (MEXF 672; read-out: abs. IC50) did it give?
**A.** Its IC50 is 8.96 µM.

**Q.** What about the IC50 (MEXF 672; read-out: rel. IC50) of the same compound?
**A.** The IC50 was 8.56 µM.

**Q.** And the “b (bottom plateau of concentration-effect curve)” value (MEXF 672)?
**A.** Its value is 39.

**Q.** What about the “t (top plateau of concentration-effect curve)” value (MEXF 672) of the same compound?
**A.** Its value is 96.

**Q.** What about the IC50 (PAXF 1872; read-out: abs. IC50) of the same compound?
**A.** The IC50 was 9.3 µM.

**Q.** And the IC50 (PAXF 1872; read-out: rel. IC50)?
**A.** The IC50 was 8.89 µM.

**Q.** And the “b (bottom plateau of concentration-effect curve)” value (PAXF 1872)?
**A.** The value was 42.

**Q.** And the “t (top plateau of concentration-effect curve)” value (PAXF 1872)?
**A.** The value was 89.

**Q.** And the IC50 (SXFS 627; read-out: abs. IC50)?
**A.** Its IC50 is 5.84 µM.

**Q.** What about the IC50 (SXFS 627; read-out: rel. IC50) of the same compound?
**A.** The IC50 was 5.74 µM.

**Q.** What about the “b (bottom plateau of concentration-effect curve)” value (SXFS 627) of the same compound?
**A.** The value was 7.

**Q.** What about the “t (top plateau of concentration-effect curve)” value (SXFS 627) of the same compound?
**A.** The value was 96.

**Q.** What about the “b (bottom plateau of concentration-effect curve)” value (CXF 1783) of the same compound?
**A.** The value was 42.

**Q.** And the “t (top plateau of concentration-effect curve)” value (CXF 1783)?
**A.** The value was 100.

**Q.** What about the IC50 (CXF 1783; read-out: abs. IC50) of the same compound?
**A.** The IC50 was 9.26 µM.

**Q.** What about the IC50 (CXF 1783; read-out: rel. IC50) of the same compound?
**A.** The IC50 was 8.81 µM.

**Q.** What about the IC50 (RXF 1781; read-out: abs. IC50) of the same compound?
**A.** Its IC50 is 11.1 µM.

**Q.** And the IC50 (RXF 1781; read-out: rel. IC50)?
**A.** The IC50 was 11.1 µM.

**Q.** What about the “b (bottom plateau of concentration-effect curve)” value (RXF 1781) of the same compound?
**A.** Its value is 8.

**Q.** What about the “t (top plateau of concentration-effect curve)” value (RXF 1781) of the same compound?
**A.** Its value is 112.

**Q.** And the IC50 (LXFL 430; read-out: abs. IC50)?
**A.** Its IC50 is 9.06 µM.

**Q.** What about the IC50 (LXFL 430; read-out: rel. IC50) of the same compound?
**A.** The IC50 was 8.98 µM.

**Q.** What about the “b (bottom plateau of concentration-effect curve)” value (LXFL 430) of the same compound?
**A.** Its value is 14.

**Q.** What about the “t (top plateau of concentration-effect curve)” value (LXFL 430) of the same compound?
**A.** Its value is 99.

**Q.** And the IC50 (RXF 1183; read-out: abs. IC50)?
**A.** Its IC50 is 50 µM.

**Q.** And the IC50 (RXF 1183; read-out: rel. IC50)?
**A.** Its IC50 is 50 µM.

**Q.** What about the IC50 (MAXF 574; read-out: abs. IC50) of the same compound?
**A.** Its IC50 is 50 µM.

**Q.** What about the IC50 (MAXF 574; read-out: rel. IC50) of the same compound?
**A.** The IC50 was 50 µM.

**Q.** What about the IC50 ([1]; Homo sapiens, U3013, positive control cell line, 24, 48 and 72 h) of the same compound?
**A.** Its IC50 is 1.9 to 3.5 µM.

**Q.** And the “in vitro cytotoxicity, comparison of isolated isomers” value ([1]; U3013, dose response, CellTiterGlo ATP quantification)?
**A.** Its value is “S1 and S2 exhibit greater in vitro oncolytic potency than the corresponding S3 and S4 isomers; also recorded: S1 and S2 exhibit higher cytotoxicity on cancer cells than S3 and S4”.
